Measured values as given in PubChem BioAssay (NCI).
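Five concentrations, 48 hours, 96-well plates. GI50 marks 50% less growth. TGI is the concentration that stops growth completely.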

Experiments:
Assay in all cases: NCI tumour cell line growth inhibition, 48 h
RXF-631 renal = tested on: RXF-631 renal
XF 498 CNS = tested on: XF 498 CNS
DMS 114 small cell lung = tested on: DMS 114 small cell lung
LXFL 529 NSCLC = tested on: LXFL 529 NSCLC
M19-MEL melanoma = tested on: M19-MEL melanoma
KM20L2 colon = tested on: KM20L2 colon
DLD-1 colon = tested on: DLD-1 colon
MDA-N = tested on: MDA-N
HOP-18 NSCLC = tested on: HOP-18 NSCLC
P388/ADR leukemia = tested on: P388/ADR leukemia
SN12K1 renal = tested on: SN12K1 renal

SMILES	TGI (XF 498 CNS)	TGI (DMS 114 small cell lung)	TGI (LXFL 529 NSCLC)	TGI (M19-MEL melanoma)	TGI (KM20L2 colon)	TGI (DLD-1 colon)	TGI (MDA-N)	TGI (HOP-18 NSCLC)	further results
COc1c(Sc2ccccc2)cc(Sc2ccccc2)c2cccnc12	45.6 µM	91.3 µM	> 100 µM	94.9 µM	50.2 µM	> 100 µM	–	–	TGI (RXF-631 renal): > 100 µM
COc1cc2c3c(c1OC)C1(C=CC(=O)C=C1)CC3NCC2 (centres undefined)	–	–	–	–	–	–	> 100 µM	–	–
CN1C(=O)C2C=CC1C1CCC2N(C)C1=O (centres undefined)	–	> 100 µM	> 100 µM	> 100 µM	–	> 100 µM	–	> 100 µM	TGI (RXF-631 renal): > 100 µM
COc1cc2c(c(OC)c1OC)-c1ccc(O)c(=O)cc1[C@@H](NC(C)=O)CC2	–	–	–	–	–	–	34.4 µM	–	–
COC(=O)[C@@]1(C)CCC[C@]2(C(=O)O)C3Cc4occc4[C@H](C)[C@@H]3CCC21 (some centres undefined)	–	–	–	–	–	–	> 100 µM	–	–
CC1=NOC(=O)C1N=Nc1ccc(Br)c(C)c1 (centres undefined)	31.7 µM	29.3 µM	29.1 µM	35.6 µM	> 100 µM	63.1 µM	–	19.8 µM	–
Nc1cc2[nH]cnc2c(=O)[nH]1	29.4 µM	> 300 µM	–	> 300 µM	> 300 µM	> 300 µM	> 300 µM	> 300 µM	TGI (P388/ADR leukemia): > 300 µM; TGI (SN12K1 renal): > 300 µM
COc1ccc2ccccc2c1CN1CCOCCOCCN(Cc2c(OC)ccc3ccccc23)CCOCCOCC1	> 63.2 µM	> 100 µM	> 100 µM	> 100 µM	> 100 µM	> 100 µM	–	–	–
COC(=O)[C@H]1N[C@@H](C(=O)OC)C23CCC[C@H]2CC[C@]1(C(OC)OC)C3	> 100 µM	> 100 µM	> 100 µM	> 100 µM	> 100 µM	> 100 µM	–	> 100 µM	–
Clc1ccc2c(c1)[nH]c1c2nc2sccn21	> 100 µM	> 100 µM	> 100 µM	> 100 µM	> 100 µM	> 100 µM	–	> 100 µM	TGI (RXF-631 renal): > 100 µM
COC(=O)C(=O)C(C(=O)C(N)=O)c1nc2ccc(C(=O)c3ccccc3)cc2[nH]c1=O (centres undefined)	–	–	–	–	–	–	> 100 µM	–	–
O=C(O)Cc1ccccc1CCc1ccccc1Cl	> 100 µM	–	> 100 µM	> 100 µM	> 100 µM	> 100 µM	–	> 100 µM	–
COC(=O)[C@]1(C)CCC[C@@]2(C)[C@@H]3C[C@@H]4[C@H]5C[C@@]3(CC[C@@H]21)C[C@@]45C	–	–	–	–	–	–	31.8 µM	–	–
Cc1ccc2sc3ccc(N)cc3c(=O)c2c1	–	–	–	–	–	–	> 100 µM	–	–
[N-]=[N+]=CC(=O)COC(=O)c1ccccc1	–	–	–	–	–	–	> 100 µM	–	–
CCCCCCCCCCCCCCCCCCNC(=O)OCC(CNS(=O)(=O)CCC[n+]1cccc2ccccc21)COC (centres undefined)	–	–	–	–	2.15 µM	27.5 µM	–	15.4 µM	–
O=C(CSc1nc(-c2ccccc2)c(-c2ccccc2)[nH]1)NNC(=S)Nc1ccccc1	> 100 µM	> 100 µM	> 100 µM	> 100 µM	> 100 µM	> 100 µM	–	–	–
Clc1ccc(-c2c(C3=NCCN3)nnn2-c2ccccc2)cc1	> 100 µM	> 100 µM	> 100 µM	> 100 µM	> 100 µM	> 100 µM	–	> 100 µM	–
CCC[CH2][Sn]1([CH2]CCC)[O]C(=O)c2ccc(N)cc2[O]1	–	–	0.248 µM	1.66 µM	3.17 µM	–	1.97 µM	2.18 µM	GI50 (MDA-N): 668 nM; GI50 (HOP-18 NSCLC): 997 nM; GI50 (LXFL 529 NSCLC): 36.5 nM; GI50 (KM20L2 colon): 1570 nM
CC(=O)Nc1ccc(/C=C2/NC(=S)N(/C=C3\C(=O)Oc4ccccc4C3=O)C2=O)cc1	–	–	–	–	–	–	> 100 µM	–	–
CCOC(=O)C1=C(Nc2ccc(Cl)c(Cl)c2)OC/C1=N\NC(=O)Cc1ccccc1	> 100 µM	> 100 µM	> 100 µM	> 100 µM	> 100 µM	> 100 µM	–	> 100 µM	–
COC(=O)C(CC(=O)c1c[nH]c2ccccc12)c1c[nH]c2ccccc12 (centres undefined)	31.8 µM	39.4 µM	–	> 10 µM	34 µM	> 100 µM	–	–	TGI (RXF-631 renal): 31.5 µM
CC1(C)C=[N+]([O-])C(C)(C)N1O	–	–	–	–	–	–	> 10 µM	–	–
CN1c2ccccc2S(=O)(=O)n2c(CCc3ccccc3)nnc21	–	–	–	–	–	–	> 100 µM	–	–
